Experimental findings from patent US20120010161A1, “NOVEL AZAPEPTIDE OR AZAPEPTIDOMIMETIC COMPOUNDS INHIBITING BCRP AND/OR P-GP” (CENTRE NATIONAL DE LA RECHERCHE SCIENTIFIQUE, priority 2009, published 2012) are described below.

One data set has as its target T1, P-gp/ABCB1 (Homo sapiens, UniProt P08183).
T1 construct: expressed in transfected cells; host or cells: NIH3T3 transfected with pHaMDR1/A
The data set can be described thus: Flow cytometry: mitoxantrone efflux induced by ABCB1 in transfected NIH3T3 cells. In kind it is cell-based. To be noted: for inhibition at 2 μM / inhibition at 10 μM: human, NIH3T3 cells transfected with ABCB1 (vector pHaMDR1/A), probe mitoxantrone (5 μM); for inhibition at 2 μM: 2 μM compound, read-out: P-gp/ABCB1 % efficacy 2 μM; for inhibition at 10 μM: 10 μM compound, read-out: P-gp/ABCB1 % efficacy 10 μM. The text has this:
Cell cultures. The human […] HEK-293 transfected with the vector pcDNA3.1 including or not the gene encoding ABCG2 (Robey, R. W., Honjo, Y., Morisaki, K., Nadjem, T. A., Runge, S., Risbood, M., Poruchynsky, M. S., Bates, S. E. 2003, Br. J. Cancer 89(10) 1971-1978) was used to test the efficacy of the products on ABCG2. The newborn hamster kidney cell line BHK21 either natural (negative control) or transfected with the vector pNUT-MRP/His expressing the gene encoding ABCC1 (Chang, Xiu-Bao, Hou, Yue-Xian, Riordan, John R. 1997, J. Biol. Chem. 272(49) 30962-30968) was used to test the efficacy of the products on ABCC1. The cell line NIH3T3 natural or transfected with the vector pHaMDR1/A expressing ABCB1 (Cardarelli, Carol O., Aksentijevich, Ivan, Pastan, Ira, Gottesman, Michael M. 1995 Cancer Res. 55 1086-1091) was used to test the efficacy of the compounds on ABCB1. The various cell types are cultured according to the protocols described previously (Robey, R. W., Honjo, Y., Morisaki, K., Nadjem, T. A., Runge, S., Risbood, M., Poruchynsky, M. S., Bates, S. E. 2003, Br. J. Cancer 89(10) 1971-1978 for the line HEK293, Chang, Xiu-Bao, Hou, Yue-Xian, Riordan, John R. 1997, J. Biol. Chem. 272(49) 30962-30968 for the line BHK21 and Cardarelli, Carol O., Aksentijevich, Ivan, Pastan, Ira, Gottesman, Michael M. 1995 Cancer Res. 55 1086-1091 for the line NIH3T3).
FIG. 1 schematically illustrates an efflux of substrate induced by a typical ABC transporter. The substrates S, such as mitoxantrone effluxed with ABCG2 and ABCB1 or daunorubicin effluxed with ABCC1, are accumulated in the cells and expelled by the transporter T, leading to a decrease in intracellular fluorescence. In the case of accumulation of the product, typically by inhibition of the efflux protein, the intracellular fluorescence increases.
Flow cytometry. Transfected or untransfected HEK-293 and BHK-21 cells are in a first stage placed in contact with substrate (5 μM mitoxantrone or 1 μM daunorubicin depending on the transporter). The substrate is accumulated for 30 minutes at 37° C. in the presence or absence of varied concentrations of the test molecules, at 0.5% of DMSO final. After washing with PBS, the cells are incubated in medium containing the same concentrations of test molecules as previously, for 1 hour at 37° C. The drug intracellular fluorescence is measured with a FACscan flow cytometer (Becton Dickinson, Mountain View, Calif.). The fluorescent substrates are excited at 488 nm; the fluorescence emission of mitoxantrone (MTX) is measured at 650 nm and that of daunorubicin is measured at 530 nm. The efficacy of the test molecules is estimated by means of equation 1:
% efficacy=100×(FA−FBG)/(FC−FBG),
in which: • FA corresponds to the intracellular level of substrate measured in the cells overexpressing the transporter T (corresponding to the lowest level of fluorescence in the absence of inhibitor), • FC corresponds to the fluorescence in the control cells not expressing the test transporter. This is thus the maximum accumulation of substrate in the cells), • FBG corresponds to the fluorescence measured in the absence of substrate and in the presence of inhibitor.
The compounds presented in TABLES 2 to 5 were tested by flow cytometry on mammalian cell lines selectively expressing the efflux proteins ABCG2, ABCB1 or ABCC1, as described previously.
The mitoxantrone efflux induced by ABCG2 or ABCB1 and the daunorubicin efflux induced by ABCC1 are estimated by flow cytometry, as described previously, at 10 μM of each test compound, and then at 2 μM for the compounds showing at least 80% efficacy at 10 μM. The concentration inducing 50% inhibition (IC50) was estimated for the most efficient aza derivatives. The values are obtained by three independent experiments and were adjusted using the SigmaPlot software.

The test system of data set [1] is HEK-293 cells expressing ABCG2. The data set is described as follows: Chemosensitization to mitoxantrone, cell growth test (MTT). In kind it is cell-based, human. Conditions: 5 μM compound, 72 hours, compared with cells not expressing ABCG2. The method, then: The cells are seeded (10 000 cells/well) in 96-well plates and incubated for 24 hours at 37° C. under 5% CO2. Varied concentrations of mitoxantrone (from 0 to 20 μM in a constant final volume of 100 μL) are then added with an equal volume of each of the test compounds. The cells are then left to divide for 72 hours. The cytotoxicity is evaluated colorimetrically with 3-(4,5-dimethylthiazol-2-yl)-2,5-diphenyltetrazolium bromide (MTT).
Increasing concentrations of mitoxantrone (MTX) are applied to HEK-293 cells expressing or not expressing ABCG2 and subjected or not subjected to a treatment with 5 μM of compound (IA.2), and whose residual vitality is evaluated after 72 hours of treatment by an MIT test. The results are illustrated in FIG. 3, in which the cells expressing ABCG2 are represented by circles, and those not expressing it by squares; those that are treated with 5 μM of (IA.2), i.e. five times its IC50, appear as empty symbols, whereas those that are not treated with (IA.2) appear as solid symbols. […] Compound (IA.2) thus appears to be a very efficient chemosensitizer.
Increasing concentrations of mitoxantrone (MTX) are applied to HEK-293 cells expressing or not expressing ABCG2 and subjected or not subjected to a treatment with 5 μM of compound (IA.1), and whose residual vitality is evaluated after 72 hours of treatment by an MTT test. The results are illustrated in FIG. 5, in which the cells expressing ABCG2 are represented by circles, and those not expressing it by squares; those that are treated with 5 μM of (IA.1), i.e. 2.5 times its IC50, appear as empty symbols, whereas those that are not treated with (IA.1) appear as solid symbols. […]
Increasing concentrations of mitoxantrone (MTX) are applied to HEK-293 cells expressing or not expressing ABCG2 and subjected or not subjected to a treatment with 5 μM of compound (IB.1), and whose residual vitality is evaluated after 72 hours of treatment by an MTT test. […]

In general, IC50 refers to the concentration that inhibits the measured activity by half. Low readings indicate greater potency, high ones weaker potency.

“Also recorded” adds a separate entry of the source. A value given as a limit tells only on which side of the number the result lay.

T1 sequence (P08183 whole entry): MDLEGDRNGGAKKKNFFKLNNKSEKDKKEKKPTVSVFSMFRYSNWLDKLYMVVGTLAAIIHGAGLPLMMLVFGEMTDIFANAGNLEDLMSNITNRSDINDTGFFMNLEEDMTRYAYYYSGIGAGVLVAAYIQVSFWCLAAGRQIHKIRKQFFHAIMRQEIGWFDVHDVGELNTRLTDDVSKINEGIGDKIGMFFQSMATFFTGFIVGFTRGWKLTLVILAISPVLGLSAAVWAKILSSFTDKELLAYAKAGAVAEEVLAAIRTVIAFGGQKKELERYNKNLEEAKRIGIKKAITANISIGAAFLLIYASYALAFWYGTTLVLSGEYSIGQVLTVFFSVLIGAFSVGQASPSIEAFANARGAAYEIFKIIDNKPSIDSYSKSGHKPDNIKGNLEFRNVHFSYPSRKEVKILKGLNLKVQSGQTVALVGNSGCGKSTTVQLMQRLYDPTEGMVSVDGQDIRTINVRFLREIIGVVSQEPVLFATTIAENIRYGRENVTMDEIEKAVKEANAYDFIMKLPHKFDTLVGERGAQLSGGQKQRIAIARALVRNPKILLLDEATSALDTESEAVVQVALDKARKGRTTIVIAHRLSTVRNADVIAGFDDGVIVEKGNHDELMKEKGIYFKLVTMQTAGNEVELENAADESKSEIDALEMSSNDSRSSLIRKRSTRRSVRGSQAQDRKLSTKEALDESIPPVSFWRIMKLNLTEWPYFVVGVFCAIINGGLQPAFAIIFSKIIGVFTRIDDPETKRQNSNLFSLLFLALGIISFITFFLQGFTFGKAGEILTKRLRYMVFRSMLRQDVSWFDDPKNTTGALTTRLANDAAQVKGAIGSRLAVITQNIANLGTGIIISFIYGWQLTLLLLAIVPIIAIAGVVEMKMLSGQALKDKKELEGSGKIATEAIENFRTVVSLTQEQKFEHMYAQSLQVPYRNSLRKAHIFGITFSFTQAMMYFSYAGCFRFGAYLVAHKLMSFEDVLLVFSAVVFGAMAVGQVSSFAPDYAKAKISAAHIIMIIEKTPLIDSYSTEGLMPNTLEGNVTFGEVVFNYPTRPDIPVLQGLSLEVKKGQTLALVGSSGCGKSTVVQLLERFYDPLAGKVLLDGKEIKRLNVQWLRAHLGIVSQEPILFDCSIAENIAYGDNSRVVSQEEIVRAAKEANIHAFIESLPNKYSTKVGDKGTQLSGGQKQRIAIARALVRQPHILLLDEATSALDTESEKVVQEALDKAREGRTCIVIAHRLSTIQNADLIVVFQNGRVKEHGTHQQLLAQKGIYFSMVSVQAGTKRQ

With `CC(C)(C)OC(=O)N[C@H](CNN(CCCCCCNC(=O)OCc1ccccc1)C(=O)OC(C)(C)C)CC(=O)OCc1ccccc1` [IB.1, Benzyl ester of (3S)-4-[2-(6-benzyloxycarbonylaminohexyl)-2-tert-butoxycarbonylhydrazino]-3-tert-butoxycarbonylaminobutyric acid], at P-gp/ABCB1, the IC50 was found to be 1000 nM; the “P-gp/ABCB1 IC50, μM” value is recorded as “micromolar or submicromolar”; the inhibition at 2 μM was 70 ± 20%; the inhibition at 10 μM worked out at 63 ± 5%. Further, the “chemosensitization: restoration of mitoxantrone sensitivity” value (“chemosensitization: restoration” for short) in data set [1] is recorded as “chemosensitization; also recorded: virtually full restoration of mitoxantrone sensitivity”.

`CC(C)(C)OC(=O)NN(C(=O)N[C@@H](CCCCNC(=O)OCc1ccccc1)C(=O)OC(C)(C)C)c1cccc(C(=O)OCc2ccccc2)c1` [IA.2, tert-Butyl ester of (2S)-6-(benzyloxycarbonylamino)-2-[1-(3′-(benzyloxycarbonyl)phenyl)-2-(tert-butoxycarbonyl)hydrazino-carbonylamino]hexanoic acid]: on P-gp/ABCB1, the inhibition at 10 μM was less than 50%. In addition, the “chemosensitization: restoration” value in data set [1] was “chemosensitization; also recorded: restores mitoxantrone sensitivity equal to that observed in the control cells”.

On to `CC(C)(C)OC(=O)NN(C(=O)N[C@@H](CCCCNC(=O)OCc1ccccc1)C(=O)OC(C)(C)C)c1ccccc1C(=O)OCc1ccccc1` [IA.1, tert-Butyl ester of (2S)-6-(benzyloxycarbonylamino)-2-[1-(2′-(benzyloxycarbonyl)phenyl)-2-(tert-butoxycarbonyl)hydrazino-carbonylamino]hexanoic acid], for which, on P-gp/ABCB1, the IC50 is no more than 500 nM, the inhibition at 2 μM came to 70 ± 10% and the inhibition at 10 μM was determined as 74 ± 1%. For the same molecule, the “chemosensitization: restoration” value in data set [1] is given as “chemosensitization; also recorded: restores virtually full mitoxantrone sensitivity”.

Take `CC(C)(C)OC(=O)N[C@H](CNN(CCCCCCNC(=O)OCc1ccccc1)C(=O)OCc1ccccc1)CC(=O)OCc1ccccc1` [IB.11, Benzyl ester of (3S)-4-[2-benzyloxycarbonyl-2-(6-benzyloxycarbonylaminohexyl)hydrazino]-3-tert-butoxycarbonyl-aminobutyric acid]: at P-gp/ABCB1, half-maximal inhibition (IC50) was put at 700 ± 100 nM and the “P-gp/ABCB1 IC50, μM” value is “micromolar or submicromolar”.
